Data taken from patent US11708335B2, “Pyrimidine compounds useful as tyrosine kinase inhibitors” (STERNGREENE, INC., priority 2017, dated 2023).

Tests used:
NCI-H1975 cells = test: In vitro proliferation (MTT) of NCI-H1975 cells; type: cell-based; settings: FIG. 4; for IC50: Homo sapiens, NCI-H1975 cells, EGFR(T790M) mutant, read-out: IC50, inhibition of NCI-H1975 cell proliferation; for activity against NCI-H1975 cells (proliferation): NCI-H1975 cells express the EGFR(T790M) mutant
Protocol: (§1) Example 1: MTT Assay Protocol
(§2) An MTT assay can be performed to screen compounds for suitability as an EGFR inhibitor. A sample MTT assay protocol is as follows:
(§3) SKBR3, BT474, MDA-MB-231, MDA-MB-453, MDA-MB-468, Ml: 5000 cells/well, 5% FBS; NE91, NR6 and NR6 derived cell lines: 2500 cells/well, 5% FBS; H1975: 5000 cells/well, 1% FBS).
(§4) Add 50 μl medium with different concentrations of inhibitors. Incubate at 37° C., 5% CO2 for 72 hrs.
(§5) Replace the medium with 100 μl of fresh medium. Leave at 37° C., 5% CO2 for 4 hrs.
(§6) Add 25 μl of MIT (5 mg/ml stock solution, final concentration 1 mg/ml) to each well. Incubate the microtrays for 2 hours at 37° C.
(§7) Add 100 μl extraction buffer (50% DMF/20% SDS at pH 4.7) to each well.
(§8) Incubate overnight at 37° C. and OD measurements at 570 nm.
(§9) A MTT assay protocol is also described in Hansen et al., “Re-examination and further development of a precise and rapid dye method for measuring cell growth/cell kill,” J. Immunol. Methods 119:203-210 (1989).
(§10) Essays conducted as outlined in Examples 1 and 2.

EGFR(C797S) = EGFR(C797S) (Homo sapiens, UniProt P00533, C797S); test: RBC HotSpot kinase assay, EGFR mutants, 10 μM ATP; type: biochemical; settings: FIG. 3
Protocol: (§11) Example 2: RBC HotSpot Kinase Assay Protocol
(§12) An RBC HotSpot Kinase Assay can be performed to determine kinase activity data. A sample RBC HotSpot KinaseAssay protocol is as follows:
(§13) Reagent: Base Reaction buffer; 20 mM Hepes (pH 7.5), 10 mM MgCl2, 1 mM EGTA, 0.02% Brij35, 0.02 mg/ml BSA, 0.1 mM Na3VO4, 2 mM DTT, 1% DMSO
(§14) Add required cofactors individually to each kinase reaction.
(§15) Compound handling: Dissolve testing compounds in 100% DMSO to specific concentration. Serial dilution can be conducted using Integra Viaflo Assist in DMSO.
(§16) Prepare substrate in freshly prepared Reaction Buffer.
(§17) Deliver any required cofactors to the substrate solution above.
(§18) Deliver kinase into the substrate solution and gently mix.
(§19) Deliver compounds in 100% DMSO into the kinase reaction mixture by Acoustic technology (Echo550; nanoliter range) and incubate for 20 min at room temp.
(§20) Deliver ^33P-ATP (Specific activity 10 μCi/μl) into the reaction mixture to initiate the reaction.
(§21) Incubate for 2 hours at room temperature.
(§22) Detect radioactivity by filter-binding method.
(§23) Kinase activity data can be expressed as the percent remaining kinase activity in test samples compared to vehicle (dimethyl sulfoxide) reactions. IC50 values and curve fits can be obtained using Prism (GraphPad Software).
as §10

[1] = biological target: EGFR(d746-750/T790M/C797 S) (Homo sapiens, UniProt P00533, C797S/DEL746-750/T790M); test: RBC HotSpot kinase assay, EGFR mutants, 10 μM ATP; type: biochemical; settings: FIG. 3
Protocol: as §11, §12, §13, §14, §15, §16, §17, §18, §19, §20, §21, §22, §23, §10

EGFR(L858R/T790M/C797S) = EGFR(L858R/T790M/C797S) (Homo sapiens, UniProt P00533, C797S/L858R/T790M); test: RBC HotSpot kinase assay, EGFR mutants, 10 μM ATP; type: biochemical; settings: FIG. 3
Protocol: as §11, §12, §13, §14, §15, §16, §17, §18, §19, §20, §21, §22, §23, §10

A431 cells = test: In vitro proliferation (MTT) of A431 cells; type: cell-based; settings: A431 cells express the wild type EGFR; FIG. 4
Protocol: as §1, §2, §3, §4, §5, §6, §7, §8, §9, §10

Row | SMILES | IC50 (NCI-H1975 cells) | activity against NCI-H1975 cells (proliferation) (NCI-H1975 cells) | activity against EGFR(C797S) (EGFR(C797S)) | activity on EGFR(d746-750/T790M/C797 S) [1] | activity on EGFR(L858R/T790M/C797S) (EGFR(L858R/T790M/C797S)) | activity against A431 cells (proliferation) (A431 cells) | activity against NCI-H1975 cells (proliferation) (NCI-H1975 cells; listed as SG1-105)
2 | CCOc1cc2ncnc(Nc3ccc(F)c(Cl)c3)c2cc1NC(=O)/C=C/CN(C)CCCO [SGI-078] | – | better activity | very strong activity | good activity | good activity | weak activity | –
3 | CCOc1cc2ncnc(Nc3ccc(F)c(Cl)c3)c2cc1NC(=O)/C=C/CN(C)CCCOC [SGI-105] | 181 nM | better activity | very strong activity | good activity | good activity | weak activity | more active than SGI-078
